In patent US10973912B2, “Treatment for myopathy” (Children's Medical Center Corporation, priority 2015, dated 2021):

Test system: ryr1b homozygous mutant zebrafish
Experiment: Secondary screen of individual chemicals in ryr1b zebrafish (vitality: survival and touch-evoked escape behavior)
Type: in vivo, zebrafish (Danio rerio)
Design: key: vitality score, theoretical range 0–60; DMSO controls expected ~50
Settings: 2.0 μg/mL from 1 dpf, scored at 5 dpf; average of two replicates of 20 larvae from heterozygous ryr1b matings; score=(#Dead*0)+(#ryr1b*1)+(#Moderate*2)+(#Wild-type*3), max 60, expected 50 in DMSO controls
Procedure: Each scored compound represents an average of two replicates, consisting of 20 larvae from heterozygous ryr1b matings (n=40). Larvae obtained from wild-type AB matings served as positive controls. […] Significance was determined by pairwise comparisons between control and experimental pools using a Student's t-test. Vitality score=(#Dead*0)+(#ryr1b*1)+(#Moderate*2)+(#Wild-type*3). Standard deviations shown for positive and negative controls were calculated based on results from 5 and 21 independent experiments, respectively.
Primary screen. For the primary screen, twenty embryos (1 dpf) resulting from a mating of heterozygous ryr1b zebrafish were manually sorted into 48-well plates containing 250 μL embryo 1×E3 medium (5.0 mM NaCl, 0.17 mM KCl, 0.33 mM CaCl2*2H2O, 0.33 mM MgSO4*7H2O) and four pooled chemicals from the Prestwick2 chemical library. Each chemical pool was assayed in duplicate using embryos from two independent clutches, for a total of 24 distinct pools tested per plate (FIG. 1). The chemicals were dissolved to a final concentration of 2.0 μg/mL and 0.4% DMSO, which is similar to concentrations other groups have used in zebrafish studies^37,38. As a negative control, twenty embryos from each clutch were cultured without chemicals in vehicle only (0.4% DMSO) (FIG. 1). Larvae obtained from wild-type (Oregon AB) matings served as positive controls in separate plates. All plates containing embryos were incubated at 28.5° C. and maintained as initially treated for 5 days. Dead embryos were removed from wells when observed during the first 4 days of the study. On day 5, dead or “motion-dead” larvae were scored alongside living larvae.
At 5 dpf, pools were scored for their ability to improve the survival and touch-evoked escape behaviors of ryr1b homozygous mutants using the following numeric scoring system: 3=4-6 cm, fast (wild-type); 2=2-4 cm (moderate); 1=<2 cm, slow (ryr1b); 0=no movement (dead) (FIG. 2A). Survival, swimming, and combined endpoints of the primary screen were then examined for their ability to distinguish positive from negative controls. […] Taking into account both experimental replicates (n=40), hit pools contained at least 37 alive larvae on day 5 (i.e., 70-100% of the larvae assumed to be ryr1b mutants survived the duration of the study), and were selected for analysis in a secondary screen.
In the secondary screen, hit pools were separated and tested as 68 individual chemicals. Screening was performed precisely as described for the primary screen with few modifications. Embryos were raised in wells containing 750 μL 1×E3 medium, as opposed to 250 μL, although the final concentration of each compound was maintained at 2.0 μg/mL. […] Vitality scores, weighting survival and swimming ratios appropriately, were calculated as (#Dead*0)+(#ryr1b*1)+(#Moderate*2)+(#Wild-type*3). Theoretical maximum and minimum scores were 60 and 0, respectively, with an expected score of 50 in DMSO-treated controls. Secondary screen hits (P<0.05), considered “candidate” compounds, are currently being examined in dose-response and long-term studies.
The second tier of the chemical screen was performed two years following the primary screen, with a fully established ryr1b^+/− line. Healthier clutches tended to result in better survival of homozygous ryr1b mutants. Median mutant life spans more accurately adhered to the 7-15 day estimate previously published^30. Therefore, in the secondary screen, hit chemical pools were separated into individual compounds and each of 68 total compounds was examined for its ability to positively influence both ryr1b survival and motor function (referred to in combination as “vitality”). […] These included two anti-inflammatory agents (sulfasalazine and ketoprofen), two monoamine oxidase inhibitors (pargyline hydrochloride and tranylcypromine hydrochloride), and two ion channel modulators (metolazone and nimodipine).

## O=C(N/N=C/c1ccc([N+](=O)[O-])o1)c1ccc(O)cc1 [Nifuroxazide]
  Vitality Score: 52.0
